The term IC50 denotes the concentration at which inhibition is half-maximal. A higher IC50 goes with weaker potency in that assay.

A value given as a limit tells only on which side of the number the result lay.

This passage reports IC50 results from patent US12570673B2, “c-Myc protein inhibitor, and preparation method therefor and use thereof” (SUZHOU KINTOR PHARMACEUTICALS, INC., priority 2019, dated 2026).

The test system of the test is HL60 cells. Briefly: Anti-cancer activity test, MTT, HL60 cells. The note with it: Homo sapiens, HL-60, culturing for 72 hours. Format: cell-based. Here is the method:
Cell culture medium: Roswell medium RPMI-1640 (+L-glutamine) was added with 10% fetal bovine serum, with 100 units penicillin and 100 μg streptomycin per ml.
Cell culture conditions: 5% CO2, 95% humidity, cultured at 37° C. constant temperature.
2. Cell Inoculation, Drugs Dosing and Culture.
Logarithmic growth phase HL-60, human chronic myeloid leukemia cells (K562), human esophageal squamous cell carcinoma cells (KYSE510), human large cell lung cancer cells (H460) were inoculated into 96-well cell culture plates, 2×10^4 cells per well. Different concentrations of active compounds (dissolved in dimethyl sulfoxide (DMSO) stock solution) were added, so that the final concentration of DMSO was 0.2%, and the control group was DMSO. Each group was repeated three times.
After culturing for 72 hours, 20 µL of thiazolyl blue (MTT) (5 mg/ml, ready for use, dissolved in 1×PBS for cell culture) was added to each well, and incubated at 37° C. for 3 hours.
The 96-well cell culture plates were centrifuged at 1000 rpm for 10 minutes. The supernatant was discarded; 200 μL of DMSO was added to each well and the plate was shaken for 5 minutes.
The absorbance of each well was detected at 570 nm wavelength with a microplate reader, and the IC50 of the compounds was calculated.

As to `CC(C)C[C@H](NC(=O)[C@H](Cc1c[nH]c2ccccc12)NC(=O)c1ccc2ccccc2c1)B1O[C@@H]2C[C@@H]3C[C@@H](C3(C)C)[C@]2(C)O1` [Compound A37], the IC50 is < 100 nM.
In turn, `CC(C)C[C@H](NC(=O)[C@@H](NC(=O)OCC1c2ccccc2-c2ccccc21)[C@@H](C)O)B1O[C@@H]2C[C@@H]3C[C@@H](C3(C)C)[C@]2(C)O1` [Compound A11] had an IC50 of 100 to 500 nM.
The same measure for `CC(C)C[C@H](NC(=O)[C@H](CC(C)C)NC(=O)NC1c2ccccc2-c2ccccc21)B1O[C@@H]2C[C@@H]3C[C@@H](C3(C)C)[C@]2(C)O1` [Compound A42]: < 100 nM.
In the case of `CC(C)C[C@H](NC(=O)[C@H](C)NC(=O)c1ccc2c(c1)C(=O)N(C1CCC(=O)NC1=O)C2=O)B(O)O` (some centres unmarked) [Compound A90] it was 2000 to 10000 nM.
The compound `CC(C)C[C@H](NC(=O)[C@H](CC(C)C)NC(=O)Cn1c2ccccc2c2cnccc21)B(O)O` [Compound A96] showed an IC50 of 100 to 500 nM.
In the case of `CC(C)C[C@H](NC(=O)[C@H](CC(C)C)NC(=O)Cn1c2ccccc2c2ncccc21)B1O[C@@H]2C[C@@H]3C[C@@H](C3(C)C)[C@]2(C)O1` [Compound A63] it was 100 to 500 nM.
In the case of `CC(C)C[C@H](NC(=O)[C@H](CC(C)C)NC(=O)Cn1c2ccc(Cl)cc2c2cc(Cl)ccc21)B(O)O` [Compound A97] it was 500 to 2000 nM; in that of `CC(C)C[C@H](NC(=O)[C@H](CC(C)C)NC(=O)Cn1c2ccccc2c2ccc(Br)cc21)B1O[C@@H]2C[C@@H]3C[C@@H](C3(C)C)[C@]2(C)O1` [Compound A62], 100 to 500 nM; in that of `CC(C)C[C@H](NC(=O)[C@H](CC(C)C)NC(=O)Cn1c2ccccc2c2ccc(Br)cc21)B(O)O` [Compound A102], 100 to 500 nM.
`CC(C)C[C@H](NC(=O)[C@H](CC(C)C)NC(=O)Cn1c2ncccc2c2cccnc21)B1O[C@@H]2C[C@@H]3C[C@@H](C3(C)C)[C@]2(C)O1` [Compound A64]: the IC50 fell in the range of 500 to 2000 nM.
Consider `CC(C)C[C@H](NC(=O)[C@H](CC(C)C)NC(=O)Cn1c2ccccc2c2ccncc21)B1O[C@@H]2C[C@@H]3C[C@@H](C3(C)C)[C@]2(C)O1` [Compound A39], for which the IC50 fell in the range of 500 to 2000 nM.
With `CC(C)C[C@H](NC(=O)[C@H](Cc1c[nH]c2ccccc12)NC(=O)OC1CCCC1)B1O[C@@H]2C[C@@H]3C[C@@H](C3(C)C)[C@]2(C)O1` [Compound A45], the IC50 is < 100 nM.
With `CC(C)C[C@H](NC(=O)[C@H](Cc1c[nH]c2ccccc12)NC(=O)CC12CC3CC(CC(C3)C1)C2)B1O[C@@H]2C[C@@H]3C[C@@H](C3(C)C)[C@]2(C)O1` [Compound A25], the IC50 is < 100 nM.
With `CC(C)C[C@H](NC(=O)[C@H](CC(C)C)NC(=O)Cn1c2ccc(Cl)cc2c2cc(Cl)ccc21)B1O[C@@H]2C[C@@H]3C[C@@H](C3(C)C)[C@]2(C)O1` [Compound A59], the IC50 lay in the range of 500 to 2000 nM.
In the case of `CC(C)C[C@H](NC(=O)[C@H](CC(C)C)NC(=O)Cn1c2ccccc2c2ccc(F)cc21)B(O)O` [Compound A103] it was 500 to 2000 nM; in that of `CC(C)C[C@H](NC(=O)[C@H](Cc1c[nH]c2ccccc12)NC(=O)CC1CCCCC1)B1O[C@@H]2C[C@@H]3C[C@@H](C3(C)C)[C@]2(C)O1` [Compound A29], < 100 nM.
`CC(C)C[C@H](NC(=O)[C@H](Cc1c[nH]c2ccccc12)NCc1ccccc1)B1O[C@@H]2C[C@@H]3C[C@@H](C3(C)C)[C@]2(C)O1` [Compound A46] displayed an IC50 of 100 to 500 nM.
`CC(C)C[C@H](NC(=O)[C@H](CC(C)C)NC(=O)CC1c2ccccc2-c2ccccc21)B1O[C@@H]2C[C@@H]3C[C@@H](C3(C)C)[C@]2(C)O1` [Compound A24]: the IC50 is < 100 nM.
As to `COC(=O)C[C@H](NC(=O)CC1c2ccccc2-c2ccccc21)C(=O)N[C@@H](CC(C)C)B(O)O` [Compound A80], the IC50 was < 100 nM.
For `CC(C)C[C@H](NC(=O)[C@H](Cc1c[nH]c2ccccc12)NC(=O)c1ccc2ncccc2c1)B(O)O` [Compound A74], the IC50 was < 100 nM.
In the case of `CC(C)C[C@H](NC(=O)[C@H](Cc1cn(C(=O)OC(C)(C)C)c2ccccc12)NC(=O)C1CC2C=CC1C2)B1O[C@@H]2C[C@@H]3C[C@@H](C3(C)C)[C@]2(C)O1` (some centres unmarked) [Compound A27] it was < 100 nM; in that of `CNC(=O)C[C@H](NC(=O)CC1c2ccccc2-c2ccccc21)C(=O)N[C@@H](CC(C)C)B1O[C@@H]2C[C@@H]3C[C@@H](C3(C)C)[C@]2(C)O1` [Compound A48], < 100 nM.
The same measure for `CC(C)C[C@H](NC(=O)[C@H](CC(C)C)NC(=O)Cn1c2ccccc2c2cccnc21)B(O)O` [Compound A94]: 500 to 2000 nM; for `CC(C)C[C@H](NC(=O)[C@H](Cc1c[nH]c2ccccc12)NC(=O)OCc1ccccc1)B1O[C@@H]2C[C@@H]3C[C@@H](C3(C)C)[C@]2(C)O1` [Compound A21]: < 100 nM; for `CC(C)C[C@H](NC(=O)[C@H](CC(C)C)N(C)C(=O)OCC1c2ccccc2-c2ccccc21)B1O[C@@H]2C[C@@H]3C[C@@H](C3(C)C)[C@]2(C)O1` [Compound A50]: 2000 to 10000 nM.
The same measure for `CC(C)C[C@H](NC(=O)[C@H](CC(N)=O)NC(=O)CC1c2ccccc2-c2ccccc21)B1O[C@@H]2C[C@@H]3C[C@@H](C3(C)C)[C@]2(C)O1` [Compound A38]: 100 to 500 nM; for `CC(C)C[C@H](NC(=O)[C@H](CC(C)C)NC(=O)Cn1c2ccccc2c2ccc(O)cc21)B(O)O` [Compound A106]: 100 to 500 nM.
On to `CC(C)C[C@H](NC(=O)[C@H](Cc1ccccc1)NC(=O)OCC1c2ccccc2-c2ccccc21)B1O[C@@H]2C[C@@H]3C[C@@H](C3(C)C)[C@]2(C)O1` [Compound A15], for which the IC50 is < 100 nM.
For the compound `CC(C)C[C@H](NC(=O)[C@H](C)NC(=O)OCC1c2ccccc2-c2ccccc21)B1O[C@@H]2C[C@@H]3C[C@@H](C3(C)C)[C@]2(C)O1` [Compound A12], the IC50 was < 100 nM.
In the case of `CC(C)C[C@H](NC(=O)[C@H](Cc1c[nH]c2ccccc12)NC(=O)c1cnc2ccccc2c1)B(O)O` [Compound A75] it was < 100 nM; in that of `CC(C)C[C@H](NC(=O)[C@H](CC(C)C)NC(=O)Cn1c2ccccc2c2ccc(C#N)cc21)B(O)O` [Compound A101], 100 to 500 nM; in that of `CC(C)C[C@H](NC(=O)[C@@H](CC(=O)NC(c1ccccc1)(c1ccccc1)c1ccccc1)NC(=O)OCC1c2ccccc2-c2ccccc21)B1O[C@@H]2C[C@@H]3C[C@@H](C3(C)C)[C@]2(C)O1` [Compound A9], 100 to 500 nM.
On to `CC(C)C[C@H](NC(=O)[C@H](CC(=O)NC(c1ccccc1)(c1ccccc1)c1ccccc1)NC(=O)OC(C)(C)C)B1O[C@@H]2C[C@@H]3C[C@@H](C3(C)C)[C@]2(C)O1` [Compound A19], for which the IC50 fell in the range of 100 to 500 nM.
On to `CC(C)C[C@H](NC(=O)OCC1c2ccccc2-c2ccccc21)C(=O)N1CCC[C@H]1B1O[C@@H]2C[C@@H]3C[C@@H](C3(C)C)[C@]2(C)O1` [Compound A49], for which the IC50 lay within 2000 to 10000 nM.
Consider `COc1ccc2c3ccccc3n(CC(=O)N[C@@H](CC(C)C)C(=O)N[C@@H](CC(C)C)B3O[C@@H]4C[C@@H]5C[C@@H](C5(C)C)[C@]4(C)O3)c2c1` [Compound A57], for which the IC50 is 500 to 2000 nM.
In the case of `CC(C)C[C@H](NC(=O)[C@H](CC(=O)NC(c1ccccc1)(c1ccccc1)c1ccccc1)NC(=O)OCc1ccccc1)B1O[C@@H]2C[C@@H]3C[C@@H](C3(C)C)[C@]2(C)O1` [Compound A20] it was < 100 nM; in that of `CC(C)C[C@H](NC(=O)[C@H](CC(C)C)NC(=O)NCC1c2ccccc2-c2ccccc21)B1O[C@@H]2C[C@@H]3C[C@@H](C3(C)C)[C@]2(C)O1` [Compound A43], < 100 nM.
The compound `CC(C)C[C@H](NC(=O)[C@H](Cc1c[nH]c2ccccc12)NCc1ccccc1)B(O)O` [Compound A79] displayed an IC50 of 100 to 500 nM.
In the case of `CC(C)C[C@H](NC(=O)[C@@H](C)NC(=O)OCC1c2ccccc2-c2ccccc21)B(O)O` [Compound A85] it was 100 to 500 nM.
The same measure for `CC(C)C[C@H](NC(=O)CNC(=O)OCC1c2ccccc2-c2ccccc21)B(O)O` [Compound A84]: < 100 nM.
Consider `CC(C)C[C@H](NC(=O)[C@H](Cc1c[nH]c2ccccc12)NC(=O)c1ccc2ncccc2c1)B1O[C@@H]2C[C@@H]3C[C@@H](C3(C)C)[C@]2(C)O1` [Compound A35], for which the IC50 lay in the range of 100 to 500 nM.
In the case of `CC(C)C[C@H](NC(=O)OCC1c2ccccc2-c2ccccc21)C(=O)N1CCC[C@H]1B(O)O` [Compound A82] it was 2000 to 10000 nM; in that of `CC(C)C[C@H](NC(=O)[C@H](CC(C)C)N(C)C(=O)OCC1c2ccccc2-c2ccccc21)B(O)O` [Compound A83], 2000 to 10000 nM.
The same measure for `CC(C)C[C@H](NC(=O)CNC(=O)OCC1c2ccccc2-c2ccccc21)B1O[C@@H]2C[C@@H]3C[C@@H](C3(C)C)[C@]2(C)O1` [Compound A51]: < 100 nM; for `CC(C)C[C@H](NC(=O)[C@H](CC(C)C)NC(=O)Cn1c2ccccc2c(=O)c2ccccc21)B1O[C@@H]2C[C@@H]3C[C@@H](C3(C)C)[C@]2(C)O1` [Compound A41]: 500 to 2000 nM; for `CC(C)C[C@H](NC(=O)[C@H](Cc1c[nH]c2ccccc12)NC(=O)CC1CCCC1)B1O[C@@H]2C[C@@H]3C[C@@H](C3(C)C)[C@]2(C)O1` [Compound A30]: < 100 nM.
`CC(C)C[C@H](NC(=O)[C@H](Cc1c[nH]c2ccccc12)NC(=O)C12CC3CC(CC(C3)C1)C2)B1O[C@@H]2C[C@@H]3C[C@@H](C3(C)C)[C@]2(C)O1` [Compound A26] displayed an IC50 of 500 to 2000 nM.
